Assay results as given in paper PMC8626090, “A conserved neuropeptide system links head and body motor circuits to enable adaptive behavior” (eLife, 2021).
Read-outs that look alike come from different tables or passages of the source. No end group written: not given here.

How the values were obtained:
CKR-2 = CKR-2 (Caenorhabditis elegans, UniProt M1Z894); assay: GPCR activation assay, CKR-2 (aequorin bioluminescence calcium, CHO-K1 Gα16); format: cell-based; settings: for ratio of total calcium response: in vitro controls, CKR-2
Description: (§1) To obtain direct evidence for NLP-12 activation of CKR-1, we used an in vitro bioluminescence-based approach. CKR-1 was expressed in Chinese hamster ovarian (CHO) cells stably expressing the promiscuous G-protein alpha subunit Gα16 and a bioluminescent calcium indicator, aequorin ([Caers et al., 2014]). The NLP-12 precursor gives rise to two distinct mature peptides, NLP-12–1 and NLP-12–2.
(§2) The GPCR activation assay was performed as previously described ([Caers et al., 2014]; [Peymen et al., 2019]; [Van Sinay et al., 2017]). Briefly, CHO-K1 cells stably expressing the luminescent Ca^2+ indicator aequorin and the promiscuous Gα16 protein (ES-000-A24 cell line, PerkinElmer) were transiently transfected with ckr-1/pcDNA3.1, ckr-2/pcDNA3.1, or empty pcDNA3.1 vector. Cells were transfected with Lipofectamine LTX and Plus reagent (Invitrogen) at 60–80% confluency and grown overnight at 37°C. After 24 hr, they were shifted to 28°C overnight. On the day of the assay, transfected cells were collected in bovine serum albumin (BSA) medium (DMEM/F12 without phenol red with L-glutamine and 15 mM HEPES, Gibco, supplemented with 0.1% BSA), at a density of 5 million cells per ml, and loaded with 5 µM coelenterazine h (Invitrogen) for 4 hr at room temperature. Compound plates containing synthetic peptides in DMEM/BSA were placed in a MicroBeta LumiJet luminometer (PerkinElmer). After loading, the transfected cells were added at a density of 25,000 cells/well, and luminescence was measured for 30 s at a wavelength of 469 nm. After 30 s, 0.1% triton X-100 (Merck) was added to lyse the cells, resulting in a maximal Ca^2+ response that was measured for 30 s. To constitute concentration-response curves of NLP-12 peptides, peptide concentrations ranging from 1 pM to 10 µM were tested in triplicate on 2 independent days.

[1] = tested on: CHO cells transfected with an empty pcDNA3.1 vector; assay: GPCR activation assay, control cells transfected with empty pcDNA3.1 vector; format: cell-based, Chinese hamster; settings: in vitro controls
Description: as §1, §2

CKR-1 = target: T1, CKR-1 (Caenorhabditis elegans, UniProt P91487); assay: GPCR activation assay, CKR-1 (aequorin bioluminescence calcium, CHO-K1 Gα16); format: cell-based; settings: for ratio of total calcium response: in vitro controls, CKR-1
T1 sequence (P91487 1-421): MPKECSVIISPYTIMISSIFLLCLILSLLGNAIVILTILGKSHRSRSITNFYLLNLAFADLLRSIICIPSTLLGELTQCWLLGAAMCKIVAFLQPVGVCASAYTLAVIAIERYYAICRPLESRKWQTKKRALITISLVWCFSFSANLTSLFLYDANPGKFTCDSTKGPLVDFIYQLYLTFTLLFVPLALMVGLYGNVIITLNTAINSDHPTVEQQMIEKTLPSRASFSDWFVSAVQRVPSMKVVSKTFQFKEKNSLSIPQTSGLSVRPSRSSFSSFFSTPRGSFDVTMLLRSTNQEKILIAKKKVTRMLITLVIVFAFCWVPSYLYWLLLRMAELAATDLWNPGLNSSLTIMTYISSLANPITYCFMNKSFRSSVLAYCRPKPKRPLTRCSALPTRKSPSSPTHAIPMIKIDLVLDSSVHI
Description: as §1, §2

[2] = tested on: SMD neurons, Caenorhabditis elegans; settings: in vivo
[3] = read-out: 95% confidence interval (EC50, CKR-2 activation), concentration-response curve fit, n=6
[4] = read-out: EC50 (CKR-2 activation, calcium response), CHO-K1 cells, aequorin/Gα16, 1 pM to 10 µM, triplicate on 2 independent days (n=6), luminescence 469 nm, 30 s
[5] = CHO-K1 cells, aequorin/Gα16, 1 pM to 10 µM, triplicate on 2 independent days (n=6), luminescence 469 nm, 30 s, read-out: EC50 (CKR-1 activation, calcium response)
[6] = concentration-response curve fit, n=6, read-out: 95% confidence interval (EC50, CKR-1 activation)

Chain of CKR-2 (M1Z894 entry or part of it): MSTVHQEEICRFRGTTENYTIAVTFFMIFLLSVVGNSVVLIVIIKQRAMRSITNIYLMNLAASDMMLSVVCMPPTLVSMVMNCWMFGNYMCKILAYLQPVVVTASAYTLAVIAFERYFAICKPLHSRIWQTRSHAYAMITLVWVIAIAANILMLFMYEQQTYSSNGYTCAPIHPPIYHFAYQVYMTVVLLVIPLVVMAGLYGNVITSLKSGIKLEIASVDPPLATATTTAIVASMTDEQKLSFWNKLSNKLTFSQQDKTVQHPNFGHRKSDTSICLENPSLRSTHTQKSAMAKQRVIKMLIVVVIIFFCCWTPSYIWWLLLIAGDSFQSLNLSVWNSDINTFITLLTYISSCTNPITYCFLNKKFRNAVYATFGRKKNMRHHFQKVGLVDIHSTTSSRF

## Nc1ncnc2c1ncn2[C@@H]1O[C@H](COP(=O)(O)OP(=O)(O)OP(=O)(O)O)[C@@H](O)[C@H]1O [ATP]
CKR-2; replicate 1
  ratio of total calcium response: 0.7753
CKR-2; replicate 2
  ratio of total calcium response: 0.8315
CKR-2; replicate 3
  ratio of total calcium response: 0.845
CKR-2; replicate 4
  ratio of total calcium response: 0.8913
CKR-2; replicate 5
  ratio of total calcium response: 0.8945
[1]; replicate 1
  ratio of total calcium response: 0.9381
[1]; replicate 2
  ratio of total calcium response: 0.6003
[1]; replicate 3
  ratio of total calcium response: 0.6268
[1]; replicate 4
  ratio of total calcium response: 0.814
[1]; replicate 5
  ratio of total calcium response: 0.8225
CKR-1; replicate 1
  ratio of total calcium response: 0.6901
CKR-1; replicate 2
  ratio of total calcium response: 0.479
CKR-1; replicate 3
  ratio of total calcium response: 0.5419
CKR-1; replicate 4
  ratio of total calcium response: 0.7243
CKR-1; replicate 5
  ratio of total calcium response: 0.7237

## DYRPLQF-NH2 [NLP-12-1, DYRPLQFamide]
CKR-2; [3]
  EC50: 5.16 to 12.5 nM
CKR-2; [4]
  EC50: 8 nM
CKR-1; [5]
  EC50: 3.5 nM
CKR-1; [6]
  EC50: 1.79 to 7.07 nM

## DGYRPLQF-NH2 [NLP-12-2, DGYRPLQFamide]
CKR-2; [3]
  EC50: 6.43 to 16.7 nM
CKR-2; [4]
  EC50: 10.2 nM
CKR-1; [5]
  EC50: 1.9 nM
CKR-1; [6]
  EC50: 0.93 to 3.77 nM

## NCCc1c[nH]cn1 [histamine]
[2]
  reorientations during food searching upon SMD silencing: reduced reorientations with SMD silencing in transgenics
